Reference: the NIST ThermoML archive (doi:10.1021/je900703f)
± gives the expanded uncertainty stated by the source.

Settings: Liquid

FC(F)=C(F)C(F)(F)F [hexafluoropropene]
Settings	vapor or sublimation pressure [kPa]
263.17 K	224.5 ± 1.7
273.16 K	324.4 ± 2.2
293.12 K	641 ± 4.1
313.11 K	1099.4 ± 7
333.11 K	1788.2 ± 11
353.14 K	2778.2 ± 17
